Columns and labels:
HOP-92 = assay: Growth inhibition of human HOP92 cells after 48 hrs by SRB staining method; type: functional; details: HOP-92, 48 h
KM12 = assay: Growth inhibition of human KM12 cells after 48 hrs by SRB staining method; type: functional; details: KM12, 48 h; for TGI: read-out: pTGI (converted)
CCRF-CEM = assay: Growth inhibition of human CCRF-CEM cells after 48 hrs by SRB staining method; type: functional; details: for CC50: read-out: pLC50 (the source's name) (converted); for TGI: read-out: pTGI (converted)
MDA-MB-231 = assay: Growth inhibition of human MDA-MB-231 cells after 48 hrs by SRB staining method; type: functional; details: MDA-MB-231, 48 h; for CC50: read-out: pLC50 (the source's name) (converted); for TGI: read-out: pTGI (converted)
SNB-19 = assay: Growth inhibition of human SNB19 cells after 48 hrs by SRB staining method; type: functional; details: SNB-19, 48 h; for TGI: read-out: pTGI (converted)
SK-MEL-2 = assay: Growth inhibition of human SK-MEL-2 cells after 48 hrs by SRB staining method; type: functional; details: SK-MEL-2, 48 h; for TGI: read-out: pTGI (converted)
SN12C = assay: Growth inhibition of human SN12C cells after 48 hrs by SRB staining method; type: functional; details: for CC50: read-out: pLC50 (the source's name) (converted); for TGI: read-out: pTGI (converted)
K562 = assay: Growth inhibition of human K562 cells after 48 hrs by SRB staining method; type: functional; details: K562, 48 h; for CC50: read-out: pLC50 (the source's name) (converted); for TGI: read-out: pTGI (converted)
NCI-H23 = assay: Growth inhibition of human NCI-H23 cells after 48 hrs by SRB staining method; type: functional; details: NCI-H23, 48 h; for TGI: read-out: pTGI (converted)
BT-549 = assay: Growth inhibition of human BT549 cells after 48 hrs by SRB staining method; type: functional; details: BT-549, 48 h; for CC50: read-out: pLC50 (the source's name) (converted); for TGI: read-out: pTGI (converted)
RPMI-8226 = assay: Growth inhibition of human RPMI8226 cells after 48 hrs by SRB staining method; type: functional; details: RPMI-8226, 48 h; for CC50: read-out: pLC50 (the source's name) (converted); for TGI: read-out: pTGI (converted)
Dihydrofolate reductase = biological target: T1, Dihydrofolate reductase (Homo sapiens, UniProt P00374); assay: Inhibition of human dihydrofolate reductase
T1 sequence (P00374 whole entry): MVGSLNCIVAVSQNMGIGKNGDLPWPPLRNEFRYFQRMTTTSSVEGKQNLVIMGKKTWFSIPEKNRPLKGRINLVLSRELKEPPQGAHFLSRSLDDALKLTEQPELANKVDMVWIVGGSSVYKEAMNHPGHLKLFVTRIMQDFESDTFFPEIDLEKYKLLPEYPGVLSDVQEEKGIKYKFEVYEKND

LOX IMVI = assay: Growth inhibition of human LOX IMVI cells after 48 hrs by SRB staining method; type: functional; details: for TGI: read-out: pTGI (converted)
OVCAR-8 = assay: Growth inhibition of human OVCAR8 cells after 48 hrs by SRB staining method; type: functional; details: OVCAR-8, 48 h; for CC50: read-out: pLC50 (the source's name) (converted); for TGI: read-out: pTGI (converted)
PC-3 = assay: Growth inhibition of human PC3 cells after 48 hrs by SRB staining method; type: functional; details: PC-3, 48 h; for CC50: read-out: pLC50 (the source's name) (converted); for TGI: read-out: pTGI (converted)
NCI/ADR-RES = assay: Growth inhibition of human NCI/ADR-RES cells after 48 hrs by SRB staining method; type: functional; details: for CC50: read-out: pLC50 (the source's name) (converted); for TGI: read-out: pTGI (converted)
ACHN = assay: Growth inhibition of human ACHN cells after 48 hrs by SRB staining method; type: functional; details: for CC50: read-out: pLC50 (the source's name) (converted); for TGI: read-out: pTGI (converted)
MDA-N = assay: Growth inhibition of human MDA-N cells after 48 hrs by SRB staining method; type: functional; details: for CC50: read-out: pLC50 (the source's name) (converted); for TGI: read-out: pTGI (converted)
SF-268 = assay: Growth inhibition of human SF268 cells after 48 hrs by SRB staining method; type: functional; details: SF-268, 48 h; for CC50: read-out: pLC50 (the source's name) (converted); for TGI: read-out: pTGI (converted)
A549 = assay: Growth inhibition of human A549 cells after 48 hrs by SRB staining method; type: functional; details: A549, 48 h; for CC50: read-out: pLC50 (the source's name) (converted); for TGI: read-out: pTGI (converted)
[1] = Growth inhibition of human HS 578T cells after 48 hrs by SRB staining method; type: functional; details: for CC50: read-out: pLC50 (the source's name) (converted); for TGI: read-out: pTGI (converted)
IGROV-1 = assay: Growth inhibition of human IGROV1 cells after 48 hrs by SRB staining method; type: functional; details: IGROV-1, 48 h; for TGI: read-out: pTGI (converted)
SNB-75 = assay: Growth inhibition of human SNB75 cells after 48 hrs by SRB staining method; type: functional; details: SNB-75, 48 h; for TGI: read-out: pTGI (converted)
UACC-62 = assay: Growth inhibition of human UACC62 cells after 48 hrs by SRB staining method; type: functional; details: UACC-62, 48 h; for TGI: read-out: pTGI (converted)
HCC 2998 = assay: Growth inhibition of human HCC2998 cells after 48 hrs by SRB staining method; type: functional; details: HCC 2998, 48 h; for TGI: read-out: pTGI (converted)

COc1ccc(Nc2nc3cc(N)cc(N)c3nc2-c2ccccc2)cc1
GI50 (HOP-92): 20 µM
LC50 (HOP-92): > 100 µM
TGI (HOP-92; read-out: pTGI (converted)): 52.5 µM
GI50 (KM12): 15.8 µM
LC50 (KM12): 60.3 µM
TGI (KM12): 30.9 µM
GI50 (CCRF-CEM): 12 µM
CC50 (CCRF-CEM): > 100 µM
TGI (CCRF-CEM): > 100 µM
GI50 (MDA-MB-231): 11.5 µM
CC50 (MDA-MB-231): 55 µM
TGI (MDA-MB-231): 25.1 µM
GI50 (SNB-19): 33.9 µM
LC50 (SNB-19): > 100 µM
TGI (SNB-19): > 100 µM
GI50 (SK-MEL-2): 15.5 µM
LC50 (SK-MEL-2): 63.1 µM
TGI (SK-MEL-2): 31.6 µM
GI50 (SN12C): 20.4 µM
CC50 (SN12C): > 100 µM
TGI (SN12C): 57.5 µM
GI50 (K562): 29.5 µM
CC50 (K562): > 100 µM
TGI (K562): > 100 µM
GI50 (NCI-H23): 12.6 µM
LC50 (NCI-H23): 51.3 µM
TGI (NCI-H23): 25.1 µM
GI50 (BT-549): 13.5 µM
CC50 (BT-549): 75.9 µM
TGI (BT-549): 31.6 µM
GI50 (RPMI-8226): 19.1 µM
CC50 (RPMI-8226): > 100 µM
TGI (RPMI-8226): > 100 µM
Ki (Dihydrofolate reductase): 1.8 µM
GI50 (LOX IMVI): 16.2 µM
LC50 (LOX IMVI): 55 µM
TGI (LOX IMVI): 29.5 µM
GI50 (OVCAR-8): 13.8 µM
CC50 (OVCAR-8): 67.6 µM
TGI (OVCAR-8): 30.9 µM
GI50 (PC-3): 20.9 µM
CC50 (PC-3): > 100 µM
TGI (PC-3): 47.9 µM
GI50 (NCI/ADR-RES): 19.1 µM
CC50 (NCI/ADR-RES): > 100 µM
TGI (NCI/ADR-RES): 44.7 µM
GI50 (ACHN): 15.1 µM
CC50 (ACHN): > 100 µM
TGI (ACHN): 43.7 µM
GI50 (MDA-N): 21.4 µM
CC50 (MDA-N): 60.3 µM
TGI (MDA-N): 36.3 µM
GI50 (SF-268): 12.9 µM
CC50 (SF-268): 72.4 µM
TGI (SF-268): 30.9 µM
GI50 (A549): 27.5 µM
CC50 (A549): > 100 µM
TGI (A549): > 100 µM
GI50 [1]: 14.5 µM
CC50 [1]: > 100 µM
TGI [1]: 46.8 µM
GI50 (IGROV-1): 15.5 µM
LC50 (IGROV-1): 83.2 µM
TGI (IGROV-1): 35.5 µM
GI50 (SNB-75): 14.5 µM
LC50 (SNB-75): > 100 µM
TGI (SNB-75): 42.7 µM
GI50 (UACC-62): 17 µM
LC50 (UACC-62): 55 µM
TGI (UACC-62): 30.2 µM
GI50 (HCC 2998): 28.2 µM
LC50 (HCC 2998): > 100 µM
TGI (HCC 2998): > 100 µM

COc1cc(Nc2nc3cc(N)cc(N)c3nc2-c2ccccc2)cc(OC)c1
LC50 (HOP-92): > 100 µM
GI50 (KM12): 13.2 µM
LC50 (KM12): 72.4 µM
TGI (KM12): 30.9 µM
GI50 (CCRF-CEM): < 0.01 µM
CC50 (CCRF-CEM): 0.977 µM
TGI (CCRF-CEM): 0.166 µM
GI50 (MDA-MB-231): 6.46 µM
CC50 (MDA-MB-231): > 100 µM
TGI (MDA-MB-231): 34.7 µM
GI50 (SNB-19): 57.5 µM
LC50 (SNB-19): > 100 µM
TGI (SNB-19): > 100 µM
GI50 (SK-MEL-2): 12 µM
LC50 (SK-MEL-2): > 100 µM
TGI (SK-MEL-2): 63.1 µM
GI50 (SN12C): 8.71 µM
CC50 (SN12C): > 100 µM
TGI (SN12C): > 100 µM
GI50 (K562): 27.5 µM
CC50 (K562): > 100 µM
TGI (K562): > 100 µM
GI50 (NCI-H23): 27.5 µM
LC50 (NCI-H23): > 100 µM
TGI (NCI-H23): > 100 µM
GI50 (BT-549): 4.68 µM
CC50 (BT-549): > 100 µM
TGI (BT-549): 31.6 µM
GI50 (RPMI-8226): 1.26 µM
CC50 (RPMI-8226): 32.4 µM
TGI (RPMI-8226): 10.5 µM
Ki (Dihydrofolate reductase): 0.6 µM
GI50 (LOX IMVI): 15.1 µM
LC50 (LOX IMVI): > 100 µM
TGI (LOX IMVI): 50.1 µM
GI50 (OVCAR-8): 6.17 µM
CC50 (OVCAR-8): > 100 µM
TGI (OVCAR-8): 46.8 µM
GI50 (PC-3): 1.95 µM
CC50 (PC-3): 57.5 µM
TGI (PC-3): 11 µM
GI50 (NCI/ADR-RES): 12.9 µM
CC50 (NCI/ADR-RES): > 100 µM
TGI (NCI/ADR-RES): 74.1 µM
GI50 (ACHN): 5.62 µM
CC50 (ACHN): > 100 µM
TGI (ACHN): 83.2 µM
GI50 (MDA-N): 12.9 µM
CC50 (MDA-N): 100 µM
TGI (MDA-N): 36.3 µM
GI50 (SF-268): 5.62 µM
CC50 (SF-268): > 100 µM
TGI (SF-268): 56.2 µM
GI50 (A549): 20 µM
CC50 (A549): > 100 µM
TGI (A549): > 100 µM
GI50 [1]: 11 µM
CC50 [1]: > 100 µM
TGI [1]: 63.1 µM
GI50 (IGROV-1): 2.69 µM
LC50 (IGROV-1): > 100 µM
TGI (IGROV-1): 17 µM
GI50 (SNB-75): 3.72 µM
LC50 (SNB-75): > 100 µM
TGI (SNB-75): 44.7 µM
GI50 (UACC-62): 7.41 µM
LC50 (UACC-62): 61.7 µM
TGI (UACC-62): 23.4 µM
GI50 (HCC 2998): 24.5 µM
LC50 (HCC 2998): > 100 µM
TGI (HCC 2998): > 100 µM
